Consider three compounds from US9982005B2, “Macrolides and methods of their preparation and use” (President and Fellows of Harvard College, priority 2013, dated 2018).

Holding throughout (type): cell-based
One assay has as its system A. baumannii strains. The assay can be described thus: MIC against A. baumannii strains (Table M8). Particulars: Acinetobacter baumannii, BAA747, A. baumannii BAA747-1.
In assay [1] the test system is S. aureus (Newman, clinical isolate). The assay can be described thus: MIC, S. aureus Newman. Particulars: Staphylococcus aureus, S. aureus (Neuman, clinical isolate), round 2. The source says:
(§1) We have collected MIC data for a total of 50 novel macrolides that this platform has produced against over 21 unique strains of B. subtilis, E. coli, S. aureus, S. pneumoniae, and H. influenzae, including several multidrug-resistant strains, with a special focus on macrolide resistant mechanisms (vide supra). Azithromycin was included as a control macrolide. CLSI standard procedures for broth dilution MIC determination were used. […] These genotypes can be constitutive or inducible. The finding that C4-epi (unnatural) isomers of the “azaketolide” macrolide class have enhanced activities relative to C4 natural isomers is very exciting.

The test system of the next assay is E. coli strains. The assay is described as follows: MIC against E. coli strains (Table M7). The settings on record: Escherichia coli, ATCC25922, E. coli ATCC 25922. Summed up: (§2)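 Broth dilution (CLSI standard) gave the minimum inhibitory concentrations. Resistance genotypes in the panel can be constitutive or inducible.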
A further assay has as its system E. coli (MC4100). The assay is described as follows: MIC, E. coli MC4100. The settings on record: Escherichia coli, round 2, read-out: MIC.
From the text: as §1

Another assay concerns K. pneumoniae strains. The assay can be described thus: MIC against K. pneumoniae strains (Table M8). The settings on record: Klebsiella pneumoniae, K. pneumoniae 10031.
In a further assay the test system is S. aureus strains. The assay can be described thus: MIC against S. aureus strains (Table M7). The settings on record: Staphylococcus aureus. Summed up:
as §2

The next assay has as its system S. pneumoniae strains. The assay can be described thus: MIC against S. pneumoniae strains (Tables M7, M8). Particulars: Streptococcus pneumoniae. From the text:
CLSI standard procedures for broth dilution MIC determination were used. […] These genotypes can be constitutive or inducible.

The next assay concerns H. influenzae strains. The assay is described as follows: MIC against H. influenzae strains (Table M8). The settings on record: Haemophilus influenzae. An outline of the steps:
as §2

In another assay the test system is E. faecalis strains. The assay can be described thus: MIC against E. faecalis strains (Table M8). The settings on record: Enterococcus faecalis, E. faecalis 29212.
In assay [2] the test system is Spn1509 S. pneumoniae ermB positive mefA negative. The assay can be described thus: broth dilution MIC, S. pneumoniae Spn1509. Particulars: Streptococcus pneumoniae.
From the text: as §1
(In broth dilution the organism is exposed to a series of concentrations in liquid medium.)

In assay [3] the test system is Spn1533 S. pneumoniae ermB positive mefA positive. The assay can be described thus: broth dilution MIC, S. pneumoniae Spn1533. The settings on record: Streptococcus pneumoniae.
From the text: as §1

In another assay the test system is EC882 E. coli imp. The assay can be described thus: broth dilution MIC, E. coli EC882. Particulars: Escherichia coli. Summed up:
as §2

The test system of the next assay is EC107 E. coli ATCC25922. The assay can be described thus: broth dilution MIC, E. coli EC107. The settings on record: Escherichia coli, read-out: MIC. Summed up:
as §2

For another assay, the system named is EC878 E. coli tolC. The assay can be described thus: broth dilution MIC, E. coli EC878. Particulars: Escherichia coli. Summed up: as §2
The subject of assay [4] is BS1723 B. subtilis BS168 WT wild type. The assay can be described thus: broth dilution MIC, B. subtilis BS1723. Particulars: Bacillus subtilis, BS1723 B. subtilis BS168 WT wild type; read-out: MIC. Summed up:
as §2

Assay [5] concerns Spn1427 S. pneumoniae ermB positive mefA negative. The assay can be described thus: broth dilution MIC, S. pneumoniae Spn1427. The settings on record: Streptococcus pneumoniae.
From the text: as §1

In assay [6] the test system is Spn160 S. pneumoniae ermB unknown mefA positive. The assay can be described thus: broth dilution MIC, S. pneumoniae Spn160. The settings on record: Streptococcus pneumoniae; Spn160 S. pneumoniae ermB unknown mefA positive; read-out: MIC.
From the text: as §1

Assay [7] deals with SA101 S. aureus ATCC29213. The assay is described as follows: broth dilution MIC, S. aureus SA101. The settings on record: Staphylococcus aureus. An outline of the steps: as §2
For a further assay, the system named is BS1725 B. subtilis ermC. The assay is described as follows: broth dilution MIC, B. subtilis BS1725. The settings on record: Bacillus subtilis. An outline of the steps: as §2
For assay [8], the system named is SA418 S. aureus ermA negative msrA positive. The assay is described as follows: broth dilution MIC, S. aureus SA418. The settings on record: Staphylococcus aureus.
From the text: as §1

Assay [9] deals with Spn1537 S. pneumoniae ermB positive mefA positive. The assay is described as follows: broth dilution MIC, S. pneumoniae Spn1537. The settings on record: Streptococcus pneumoniae.
From the text: as §1

The test system of assay [10] is SA506 S. aureus ermA positive msrA unknown. The assay can be described thus: broth dilution MIC, S. aureus SA506. The settings on record: Staphylococcus aureus.
From the text: as §1

Assay [11] deals with Spn 106 S. pneumonia ATCC49619. The assay can be described thus: broth dilution MIC, S. pneumoniae Spn 106. The settings on record: Streptococcus pneumoniae; Spn 106 S. pneumonia ATCC49619; read-out: MIC.
From the text: as §1

Assay [12] concerns SA1707 S. aureus ermA negative msrA positive. The assay is described as follows: broth dilution MIC, S. aureus SA1707. Particulars: Staphylococcus aureus.
From the text: as §1

Assay [13] relates to SA1708 S. aureus ermA positive msrA negative. The assay is described as follows: broth dilution MIC, S. aureus SA1708. Particulars: Staphylococcus aureus.
From the text: as §1

Assay [14] concerns SA557 S. aureus ermA unknown msrA positive. The assay is described as follows: broth dilution MIC, S. aureus SA557. The settings on record: Staphylococcus aureus.
From the text: as §1

For assay [15], the system named is SA183 S. aureus ermA positive msrA unknown. The assay can be described thus: broth dilution MIC, S. aureus SA183. The settings on record: Staphylococcus aureus.
From the text: as §1

For assay [16], the system named is HI175 H. influenzae ATCC49247. The assay can be described thus: broth dilution MIC, H. influenzae HI175. The settings on record: Haemophilus influenzae.
From the text: as §1

Molecules are shown by their SMILES. In brackets after ≈: the same amount, converted by molar mass. Like-named read-outs stand apart in the source and are kept apart here.

Turning to `CC[C@H]1OC(=O)CC(=O)[C@H](C)[C@@H](O[C@@H]2OC(C)CC(N(C)C)C2O)[C@](C)(OC)C[C@@H](C)CN[C@H](C)[C@H]2N(CCCCn3cc(-c4cccc(N)c4)nn3)C(=O)O[C@]12C` (stereo partly shown) [FSM-56133], the MIC with A. baumannii strains was 32 µg/mL (≈ 39.3 µM); in assay [1], 4 µg/mL (≈ 4.91 µM); against E. coli strains, 8 µg/mL (≈ 9.83 µM); in the assay with E. coli (MC4100), 8 µg/mL (≈ 9.83 µM); against K. pneumoniae strains, 2 µg/mL (≈ 2.46 µM); in the assay with S. aureus strains (ATCC29213, S. aureus ATCC 29213, read-out: MIC S. aureus (ATCC 29213)), 4 µg/mL (≈ 4.91 µM). In addition, the MIC in the assay with S. aureus strains (S. aureus 506, read-out: MIC S. aureus (506)) was more than 32 µg/mL; in the assay with S. aureus strains (S. aureus 1708, read-out: MIC S. aureus (1708)) it was 4 µg/mL (≈ 4.91 µM); in the assay with S. aureus strains (USA300, S. aureus USA300, read-out: MIC S. aureus (USA300)), 8 µg/mL (≈ 9.83 µM); with S. pneumoniae strains (S. pneumoniae 160, read-out: MIC S. pneumonae (160)) it was 0.5 µg/mL (≈ 0.614 µM); in the assay with S. pneumoniae strains (S. pneumoniae 1509, read-out: MIC S. pneumoniae (1509)) it was more than 32 µg/mL; in the assay with S. pneumoniae strains (S. pneumoniae 1533, read-out: MIC S. pneumoniae (1533)) it was more than 32 µg/mL. The MIC was more than 32 µg/mL in the assay with S. pneumoniae strains (S. pneumoniae 1537, read-out: MIC S. pneumoniae (1537)); 1 µg/mL (≈ 1.23 µM) in the assay on S. pneumoniae strains (S. pneumoniae 49619, read-out: MIC S. pneumoniae (49619)); 1 µg/mL (≈ 1.23 µM) with H. influenzae strains (H. influenzae 49247, read-out: MIC H. influenzae (49247)); 4 µg/mL (≈ 4.91 µM) in the assay with H. influenzae strains (H. influenzae 49766, read-out: MIC H. influenzae (49766)); 0.5 µg/mL (≈ 0.614 µM) against E. faecalis strains.

As for `CCC[C@@H]1C[C@@H](C(=O)N[C@@H]([C@H]2O[C@H](SC)[C@H](O)[C@@H](O)[C@H]2O)[C@H](C)Cl)N(C)C1` [Clindamycin, clindamycin, reference compound], the MIC was 16 to 32 µg/mL (≈ 37.6 to 75.3 µM) in assay [2]; more than 32 µg/mL in [3]; 2 µg/mL (≈ 4.71 µM) with EC882 E. coli imp; more than 32 µg/mL in the assay on EC107 E. coli ATCC25922; 2 µg/mL (≈ 4.71 µM) in the assay with EC878 E. coli tolC; 1 µg/mL (≈ 2.35 µM) in assay [4]. The MIC was more than 32 µg/mL in [5]; 0.0156 to 0.0312 µg/mL (≈ 0.0367 to 0.0734 µM) in [6]; 0.125 µg/mL (≈ 0.294 µM) in assay [7] (ATCC29213); 4 µg/mL (≈ 9.41 µM) against BS1725 B. subtilis ermC (BS1725 B. subtilis ermC (+ery)); 2 µg/mL (≈ 4.71 µM) against BS1725 B. subtilis ermC (BS1725 B. subtilis ermC (−ery)); 0.0625 to 0.125 µg/mL (≈ 0.147 to 0.294 µM) in assay [8]. In addition, the MIC in assay [9] is more than 32 µg/mL; in [10], more than 32 µg/mL; in assay [11] it was 0.0312 µg/mL (≈ 0.0734 µM); in assay [12], 0.0625 to 0.125 µg/mL (≈ 0.147 to 0.294 µM); in assay [13], 0.25 µg/mL (≈ 0.588 µM); in [14], 0.125 µg/mL (≈ 0.294 µM). Also, the MIC in [15] was more than 32 µg/mL.

With `CC[C@H]1OC(=O)C(C)(F)C(=O)[C@@H](C)[C@@H](O[C@@H]2OC(C)CC(N(C)C)C2O)[C@](C)(OC)C[C@@H](C)CN[C@H](C)[C@H]2N(CCCCn3cc(-c4cccc(N)n4)nn3)C(=O)O[C@]12C` (stereo partly shown) [FSM-20718], the MIC was 0.5 to 4 µg/mL (≈ 0.59 to 4.72 µM) in [2] (Spn1509 S. pneumoniae ermB positive mefA negative, read-out: MIC); more than 32 µg/mL in assay [3]; 0.125 µg/mL (≈ 0.148 µM) in the assay with EC882 E. coli imp; more than 32 µg/mL in the assay on EC107 E. coli ATCC25922; 1 µg/mL (≈ 1.18 µM) in the assay on EC878 E. coli tolC; 8 µg/mL (≈ 9.44 µM) in assay [4]. The MIC in assay [5] was 4 to 32 µg/mL (≈ 4.72 to 37.8 µM); in [6], 0.25 to 1 µg/mL (≈ 0.295 to 1.18 µM); in assay [7] (ATCC29213, SA101 S. aureus ATCC29213, read-out: MIC), 8 µg/mL (≈ 9.44 µM); against BS1725 B. subtilis ermC (BS1725 B. subtilis ermC (+ery)), more than 32 µg/mL; in [8], 16 µg/mL (≈ 18.9 µM); in [9], more than 32 µg/mL. Moreover, the MIC in assay [10] is more than 32 µg/mL; in assay [11] it was 0.0156 to 0.25 µg/mL (≈ 0.0184 to 0.295 µM); in assay [12], 32 µg/mL (≈ 37.8 µM); in [13], 16 µg/mL (≈ 18.9 µM); in [14] (SA557 S. aureus ermA unknown msrA positive, read-out: MIC), 8 µg/mL (≈ 9.44 µM); in [16], 2 to 16 µg/mL (≈ 2.36 to 18.9 µM). In assay [15], this compound registered an MIC of more than 32 µg/mL.
